Data on 4 molecules can be found in patent publication US6783973B1, “Mammalian catecholamine receptor genes and uses” (Oregon Health & Science University, priority 2000, dated 2004).

Assay [1] relates to human catecholamine receptor. Put plainly: MAP kinase pathway stimulation, Elk-gal/luciferase reporter assay in HEK 293 cells transfected with H2-3pcDNA3.1. To be noted: HEK 293 cells expressing FLAG/D2-tagged human catecholamine receptor; compared with cells incubated in the absence of the ligand.
The subject of assay [2] is HEK 293 cells transfected with pcDNA3.1 without catecholamine receptor sequences. In words: MAP kinase pathway stimulation, Elk-gal/luciferase reporter assay in control HEK 293 cells transfected with pcDNA3.1. Conditions: control HEK 293 cells with empty vector pcDNA3.1; compared with cells incubated in the absence of the ligand. For orientation: A reporter such as luciferase makes a cellular process visible.

Regarding `C=CCN1CCc2c(cc(O)c(O)c2Cl)C(c2ccccc2)C1` (centres unmarked) [SKF82958], the “fold stimulation of luciferase (MAP kinase activation), H2-3 pcDNA3.1” value in assay [1] was 2.52 fold. The “fold stimulation of luciferase (MAP kinase activation), pcDNA3.1” value in assay [2] is on record as 0.79 fold.
For `NC1CCc2cc(O)c(O)cc2C1` (centres unmarked) [ADTN67], in that order: 1.93 fold and 0.78 fold.
Regarding `NC[C@H](O)c1ccc(O)c(O)c1` [Norepinephrine], in assay [1], the “fold stimulation of luciferase (MAP kinase activation), H2-3 pcDNA3.1” value turned out to be 1.69 fold. In assay [2], the “fold stimulation of luciferase (MAP kinase activation), pcDNA3.1” value stood at 1.3 fold.
For `NCCc1c[nH]c2ccc(O)cc12` [Serotonin], in that order: 1.22 fold and 1 fold.
